# Measurements as given in PMC10221159, “Investigation of N-Acetyltransferase 2-Mediated Drug Interactions of Amifampridine: In Vitro and In Vivo Evidence of Drug Interactions with Acetaminophen” (Pharmaceutics, 2023).
# Like-named read-outs stand apart in the source and are kept apart here.
# Assays:
# [1] = humans, cited from earlier work
# [2] = In vivo pharmacokinetic interaction study in rats (plasma); set-up: species or system rat; details: oral amifampridine 2 mg/kg; for AUC(0-inf) / AUC(0-t) / CL/F / Cmax / MRT / Tmax / Vd/F / half-life / CL renal: male, Sprague-Dawley, rat, po, 2 mg/kg; for AUC(0-inf) / AUC(0-t) / CL/F / Cmax / MRT / Tmax / Vd/F / half-life: plasma; for CL renal: urine and plasma, renal clearance
# Experimental: Male Sprague Dawley (SD) rats (7–8 weeks old, 260–330 g) were purchased from Orient Bio, Inc. (Seongnam, Korea). The rats were housed under a light/dark cycle for 12 h and were left for at least a week before the experiment to adapt to the laboratory environment. Water and food were provided ad libitum. The rats were fasted overnight with free access to water prior to pharmacokinetic studies. The protocols for animal experiments were approved in accordance with the Guidelines for Animal Care and Use of Gachon University (approval no.: GIACUC-R2021006; 13 May 2021).
# The rats were anesthetized with a mixture of Rompun and Zoletil by intramuscular injection and received an intraperitoneal injection of vehicle (40:60 PEG400:normal saline; n = 8) or 100 mg/kg acetaminophen (n = 8). After 10 min, 2 mg/kg amifampridine (dissolved in saline) was administered orally. Blood samples were collected at 0, 5, 15, 30, 60, 90, 120, 240, and 360 min and centrifuged at 14,000 rpm for 15 min at 4 °C. For analysis of amifampridine and 3-N-acetylamifampridine, 50 μL of plasma samples was mixed with 100 μL IS solution (5 ng/mL ondansetron in acetonitrile) and the mixture was vortexed followed by centrifugation at 14,000 rpm for 15 min at 4 °C. For the analysis of acetaminophen, 200 μL of IS (tolbutamide 200 ng/mL in methanol) was added to the plasma samples which were diluted 10-fold using the blank plasma and then vortexed for one minute. Further, the samples were centrifuged at 14,000 rpm for 15 min at 4 °C. The supernatants were transferred to LC vials for quantification.
# Non-compartment analysis (NCA) was performed to calculate the pharmacokinetic parameters for the in vivo study using WinNonlin (Version 8.3. (Pharsight Corporation, Mountain View, CA, USA)). The area under the plasma concentration–time curve from time 0 to infinity (AUCinf) was calculated by the linear trapezoidal method and standard extrapolation using λ, where λ represents the slope of the terminal phase in a semi-log graph for plasma concentration–time profiles. Renal clearance (CLr) was determined by dividing the accumulated amount of drug excreted in the urine by AUCinf.
# [3] = set-up: method as in PMID 25692017; details: NAT2 slow vs fast acetylators; cited from earlier work
# [4] = Tissue distribution of amifampridine and 3-N-acetylamifampridine in rats; type: in vivo, rat; details: for Kp at 1 h: rat, 60 min after oral amifampridine 2 mg/kg
# Experimental: To investigate the effects of acetaminophen on the tissue distribution of amifampridine and 3-N-acetylamifampridine, rats were sacrificed at 60 min after administration of amifampridine in control and acetaminophen-treated rats (n = 6) as mentioned above, and the tissues, including liver, kidney, heart, lungs, spleen, brain, and muscle tissues, were obtained. Tissue samples were homogenized using a Wheaton^TM Dounce tissue grinder (Wheaton Millipore, Billerica, MA, USA) after adding a three-fold volume of PBS. An amount of 100 μL of tissue homogenates was transferred to the tube and 200 μL of IS solution was then added and vortexed followed by centrifugation at 14,000 rpm for 15 min at 4 °C. The supernatants were transferred to LC vials for quantification. For muscle samples, the supernatant was concentrated using a desiccator and reconstituted with the mobile phase solvent.
# [5] = In vitro metabolic profile of amifampridine (3-N-acetylamifampridine formation) in rat liver S9 fraction; type: in vitro ADME
# Experimental: An in vitro metabolic study was performed to investigate the metabolic profile of amifampridine in the rat liver S9 fraction. The reaction mixture, which consisted of rat liver S9 fraction (2 mg/mL protein) and 2 mM acetyl-CoA in potassium phosphate buffer, was prepared and incubated for 5 min in a thermal mixer (200 oscillations/min) at 37 °C. Then, amifampridine was added to the reaction mixture to make the final concentrations of amifampridine at 2, 10, 20, 50, 100, 500, and 1000 μM. After further incubation for 15 min at 37 °C, 50 μL of the sample was transferred into the tube containing 200 μL of ice-cold potassium phosphate buffer and mixed by vortexing. An amount of 50 μL of the mixture was then transferred into the tube containing 100 μL of internal standard (IS; 5 ng/mL ondansetron in acetonitrile), followed by vortexing and centrifugation at 14,000 rpm for 15 min at 4 °C. The supernatant was transferred into vials for HPLC-tandem mass spectrometry (MS/MS) analysis and the concentration of 3-N-acetylamifampridine was determined.
# The Vm and Km values, Michaelis–Menten parameters, were determined by linear regression using Lineweaver–Burk equation, as follows: 1/v=Km/Vmax×1/S+1/Vmax where v is the rate of amifampridine metabolism to 3-N-acetylamifampridine in the S9 fraction, [S] is the concentration of amifampridine, Vmax is the maximum metabolic rate of amifampridine, and Km is the concentration of amifampridine at half Vmax. The intrinsic clearance (CLint) was calculated using Vmax/Km, with the assumption that Km is much greater than [S], as is usual in clinical practice.
# [6] = acetaminophen-treated (100 mg/kg) vs control rats
# [7] = acetaminophen-treated group (100 mg/kg ip)
# [8] = 60 min, acetaminophen-treated vs control rats
smiles,measurement,setting,value
Nc1ccncc1N [amifampridine],dose excreted via the urine within 24 h,[1]; after administration of amifampridine,19%
same,dose excreted via the urine within 24 h as amifampridine plus 3-N-acetylamifampridine,[1],More than 90%
same,elimination half-life,[1],approximately 2.5 h
same,increase in AUCinf,[2]; [6],185.64%
same,increase in Cmax,[2]; [6],208.34%
same,AUC(0-inf),[2]; [7],434 ng·h/mL
same,AUC(0-t),[2]; [7],414 ng·h/mL
same,CL/F,[2]; [7],81.7 ± 21.2 mL/min/kg
same,Cmax,[2]; [7],200 ± 100 ng/mL
same,MRT,[2]; [7],2.08 h
same,Tmax,[2]; [7],1 h
same,Vd/F,[2]; [7],9.83 ± 4.69 L/kg
same,half-life,[2]; [7],1.36 ± 0.416 h
same,AUC(0-inf),[2]; control group,152 ng·h/mL
same,AUC(0-t),[2]; control group,141 ng·h/mL
same,CL/F,[2]; control group,225 ± 38.3 mL/min/kg
same,Cmax,[2]; control group,70 ± 20 ng/mL
same,MRT,[2]; control group,2.29 h
same,Tmax,[2]; control group,0.781 h
same,Vd/F,[2]; control group,26.9 L/kg
same,half-life,[2]; control group,1.4 ± 0.352 h
same,CL renal,[2]; [7],3.87 ± 0.91 mL/min
same,CL renal,[2]; control group,4.89 ± 1.71 mL/min
same,AUC higher in slow acetylators than in fast acetylators,[3],5–10 fold
same,Cmax higher in slow acetylators than in fast acetylators,[3],approximately 3.5 fold
same,higher frequency of drug-related treatment-emergent adverse events in slow than fast acetylators,[3],more than 10 fold
same,increase of concentration in liver,[4]; [8],270.26%
same,increase of concentration in muscle,[4]; [8],413.11%
same,increase of concentration in spleen,[4]; [8],265.17%
same,Kp at 1 h,"[4]; Sprague Dawley, brain, acetaminophen 100 mg/kg, read-out: Tissue partition coefficient (Kp), Brain",0.1
same,Kp at 1 h,"[4]; Sprague Dawley, brain, control, read-out: Tissue partition coefficient (Kp), Brain",0.1 ± 0.3
same,Kp at 1 h,"[4]; Sprague Dawley, heart, acetaminophen 100 mg/kg, read-out: Tissue partition coefficient (Kp), Heart",0.7 ± 0.5
same,Kp at 1 h,"[4]; Sprague Dawley, heart, control, read-out: Tissue partition coefficient (Kp), Heart",0.6 ± 0.5
same,Kp at 1 h,"[4]; Sprague Dawley, lungs, acetaminophen 100 mg/kg, read-out: Tissue partition coefficient (Kp), Lungs",2.2 ± 2.8
same,Kp at 1 h,"[4]; Sprague Dawley, lungs, control, read-out: Tissue partition coefficient (Kp), Lungs",1.7 ± 1.1
same,Kp at 1 h,"[4]; Sprague Dawley, spleen, acetaminophen 100 mg/kg, read-out: Tissue partition coefficient (Kp), Spleen",1.6 ± 1
same,Kp at 1 h,"[4]; Sprague Dawley, spleen, control, read-out: Tissue partition coefficient (Kp), Spleen",1 ± 0.5
same,decrease of Kp in the kidneys,[4]; acetaminophen-treated vs control rats,51%
same,Kp at 1 h,"[4]; male, Sprague-Dawley, kidney, acetaminophen 100 mg/kg, read-out: Tissue partition coefficient (Kp), Kidney",3.6 ± 0.4
same,Kp at 1 h,"[4]; male, Sprague-Dawley, kidney, control, read-out: Tissue partition coefficient (Kp), Kidney",7.4 ± 2.7
same,Kp at 1 h,"[4]; male, Sprague-Dawley, liver, acetaminophen 100 mg/kg, read-out: Tissue partition coefficient (Kp), Liver",3 ± 1.5
same,Kp at 1 h,"[4]; male, Sprague-Dawley, liver, control, read-out: Tissue partition coefficient (Kp), Liver",3.8 ± 2.6
same,Kp at 1 h,"[4]; male, Sprague-Dawley, muscle, acetaminophen 100 mg/kg, read-out: Tissue partition coefficient (Kp), Muscle",0.4 ± 0.2
same,Kp at 1 h,"[4]; male, Sprague-Dawley, muscle, control, read-out: Tissue partition coefficient (Kp), Muscle",0.5 ± 0.4
same,Vmax,"[5]; 3-N-acetylamifampridine formation, rat liver S9, Lineweaver–Burk plot",5130 ± 1100 pmol/min/mg protein
same,intrinsic clearance in liver S9 fraction,"[5]; liver S9 fraction, Vmax/Km, rat liver S9, read-out: CLint",78 ± 11 µL/min/mg
same,Km at 15 min,"[5]; rat liver S9 fraction, 3-N-acetylamifampridine formation, rat liver S9 (2 mg/mL protein), Lineweaver–Burk plot",66.6 ± 24.2 µM
